# Test results as given in US11345756B2, “CCR3 inhibition for ocular angiogenesis and macular degeneration” (University of Kentucky Research Foundation, priority 2006, dated 2022).
# Tested on: CNV (choroidal neovascularization)
# Assay: Laser-induced CNV volume, confocal evaluation of isolectin B4 stained RPE-choroid flatmounts
# Type: in vivo
# Settings: C57BL/6J mice, laser injury, blockade of CCR3 ligand by neutralizing antibody injected into the vitreous humor; compared to control antibodies, all Ps<0.001
# Description: Laser photocoagulation (532 nm, 200 mW, 100 ms, 75 μm) (OCULIGHT™ GL, Index Corporation) was performed (volume studies: 3/eye; protein analyses/flow cytometry: 12/eye) on both eyes of each animal to induce CNV (choroidal neovascularization). CNV volumes were measured by scanning laser confocal microscope (TCS SP, Leica) with 0.5% FITC-Griffonia simplicifolia Isolectin B4 (Vector Laboratories). CNV was induced by laser injury in C57BL/6J and Ccr3^−/− mice and volumes measured 7 days later by confocal evaluation of Griffonia simplicifolia Isolectin B4 staining of RPE-choroid flatmounts. Neutralizing antibodies (Ab) against CCR3, eotaxin (CCL-11), eotaxin-2 (CCL-24), RANTES, MCP-3 or control goat IgG or rat IgG2a were injected into the vitreous humor following injury.
# Because the probability of each laser lesion developing CNV is influenced by the group to which it belongs, the mouse, the eye, and the laser spot, the mean lesion volumes were compared using a linear mixed model with a split plot repeated measures design. The whole plot factor was the genetic group to which the animal belonged while the split plot factor was the eye. Statistical significance was determined at the 0.05 level. Post hoc comparison of means was constructed with a Bonferroni adjustment for multiple comparisons.
substance,measurement,value
eotaxin,suppression of CNV,45%
